# In PMC2014795 (PLoS Pathogens, 2007):
# Where no end group is shown, it is not given here.
# Molecular target: T1, HLA-DR1 (DRB1*0101) (Homo sapiens, UniProt P01903+P01911, A100R/D57E/F55L/F60I/F76Y/I96L/L162R/M171V/P40L/Q125E/R42F/V115G/Y59C)
# T1 construct: the extracellular portion of HLA-DR1 was produced by expression of isolated subunits in Escherichia coli inclusion bodies; made in house
# Experiment: biochemical
# Type: binding
# Settings: not given
row,Molecule,IC50 [nM]
1,CC[C@H](C)[C@H](NC(=O)[C@H](CCSC)NC(=O)[C@@H](N)Cc1ccc(O)cc1)C(=O)N[C@H](C(=O)N[C@H](C(=O)NCC(=O)N[C@H](C(=O)N[C@H](C(=O)N[C@H](C(=O)N[C@@H](CC(C)C)C(=O)N[C@@H](C)C(=O)N[C@@H](C)C(=O)N[C@@H](CC(C)C)C(=O)N[C@@H](Cc1ccccc1)C(=O)N[C@@H](CCSC)C(=O)N[C@@H](Cc1ccc(O)cc1)C(=O)N[C@@H](Cc1ccc(O)cc1)C(=O)N[C@@H](C)C(=O)N[C@@H](CCCCN)C(=O)N[C@@H](CCCNC(=N)N)C(=O)N[C@@H](CCSC)C(=O)O)[C@@H](C)CC)[C@@H](C)CC)C(C)C)[C@@H](C)CC)C(C)C [Peptide 317],675 ± 185
2,CC[C@H](C)[C@H](NC(=O)[C@H](CC(N)=O)NC(=O)[C@H](Cc1ccccc1)NC(=O)[C@H](CC(C)C)NC(=O)[C@H](CCCCN)NC(=O)[C@H](CC(N)=O)NC(=O)CNC(=O)[C@H](CC(=O)O)NC(=O)[C@H](CC(C)C)NC(=O)[C@@H]1CCCN1C(=O)[C@@H](NC(=O)[C@@H](NC(=O)[C@H](CCCCN)NC(=O)[C@@H](NC(=O)[C@H](CCCCN)NC(=O)[C@H](CS)NC(=O)[C@H](CO)NC(=O)[C@@H](N)Cc1c[nH]cn1)C(C)C)[C@@H](C)CC)C(C)C)C(=O)N[C@@H](C)C(=O)N[C@@H](CCC(N)=O)C(=O)N[C@@H](CCCNC(=N)N)C(=O)O [Peptide 329],5 ± 1
3,CC[C@H](C)[C@H](N)C(=O)N[C@@H](CO)C(=O)N[C@@H](CCC(=O)O)C(=O)N1CCC[C@H]1C(=O)N[C@H](C(=O)N[C@@H](CC(N)=O)C(=O)N[C@H](C(=O)N[C@@H](Cc1ccc(O)cc1)C(=O)N[C@@H](CC(C)C)C(=O)N[C@@H](CC(C)C)C(=O)N[C@@H](C)C(=O)N[C@@H](C)C(=O)N[C@H](C(=O)N[C@@H](Cc1ccc(O)cc1)C(=O)N[C@@H](CO)C(=O)N[C@@H](CC(=O)O)C(=O)N[C@@H](Cc1ccccc1)C(=O)N[C@@H](CC(N)=O)C(=O)N[C@@H](CC(=O)O)C(=O)N[C@@H](CCC(=O)O)C(=O)N[C@H](C(=O)O)C(C)C)C(C)C)C(C)C)C(C)C [Peptide 341],32 ± 2
4,CC[C@H](C)[C@H](NC(=O)[C@H](Cc1ccccc1)NC(=O)[C@H](CC(C)C)NC(=O)[C@H](CC(C)C)NC(=O)[C@H](CS)NC(=O)[C@@H](NC(=O)[C@H](C)NC(=O)[C@H](C)NC(=O)[C@@H](NC(=O)[C@H](C)NC(=O)[C@@H](NC(=O)[C@@H](NC(=O)[C@@H](NC(=O)[C@H](Cc1ccccc1)NC(=O)[C@H](Cc1ccccc1)NC(=O)[C@@H](NC(=O)[C@H](CO)NC(=O)[C@H](CC(C)C)NC(=O)[C@H](CO)NC(=O)[C@H](CC(N)=O)NC(=O)[C@@H](N)CCSC)[C@@H](C)CC)[C@@H](C)CC)C(C)C)C(C)C)[C@@H](C)O)C(C)C)C(=O)O [Peptide 325],580 ± 50
5,CC[C@H](C)[C@H](NC(=O)[C@H](CO)NC(=O)[C@H](CCSC)NC(=O)[C@H](CO)NC(=O)[C@H](Cc1ccc(O)cc1)NC(=O)[C@@H](NC(=O)[C@@H](NC(=O)[C@H](CO)NC(=O)[C@@H]1CCCN1C(=O)[C@H](Cc1ccccc1)NC(=O)[C@H](CC(C)C)NC(=O)[C@H](CC(C)C)NC(=O)[C@@H](NC(=O)[C@@H](NC(=O)[C@@H](NC(=O)[C@H](CC(C)C)NC(=O)[C@H](CO)NC(=O)[C@H](CCCNC(=N)N)NC(=O)[C@@H](N)CCSC)[C@@H](C)CC)[C@@H](C)CC)C(C)C)[C@@H](C)CC)[C@@H](C)CC)C(=O)N[C@@H](CCCNC(=N)N)C(=O)N[C@@H](CCCNC(=N)N)C(=O)O [Peptide 319],1890
6,CC[C@H](C)[C@H](NC(=O)[C@H](CCCNC(=N)N)NC(=O)[C@H](CC(=O)O)NC(=O)[C@@H](NC(=O)[C@H](CCCCN)NC(=O)[C@@H](NC(=O)[C@H](CO)NC(=O)[C@H](CCC(=O)O)NC(=O)[C@@H](NC(=O)[C@H](Cc1ccc(O)cc1)NC(=O)[C@H](CCSC)NC(=O)[C@H](Cc1ccccc1)NC(=O)[C@H](CO)NC(=O)[C@H](Cc1ccccc1)NC(=O)[C@H](CCCCN)NC(=O)[C@H](Cc1ccccc1)NC(=O)[C@H](Cc1ccccc1)NC(=O)[C@@H](N)CC(=O)O)[C@@H](C)CC)[C@@H](C)CC)C(C)C)C(=O)NCC(=O)N[C@@H](CC(=O)O)C(=O)N[C@@H](CC(N)=O)C(=O)O [Peptide 328],140 ± 20
7,TTKHPDYAILAARIAVSNLHK [Peptide 307],28 ± 4
8,CC[C@H](C)[C@H](NC(=O)[C@@H]1CCCN1C(=O)[C@H](CO)NC(=O)CNC(=O)[C@H](CO)NC(=O)[C@H](CC(C)C)NC(=O)[C@H](CC(C)C)NC(=O)[C@H](CC(C)C)NC(=O)[C@H](Cc1ccccc1)NC(=O)[C@@H]1CCCN1C(=O)[C@@H](NC(=O)[C@H](CCCCN)NC(=O)[C@H](CC(N)=O)NC(=O)[C@H](CCCCN)NC(=O)[C@@H](N)CC(N)=O)[C@@H](C)CC)C(=O)N[C@H](C(=O)N[C@@H](CC(N)=O)C(=O)N[C@H](C(=O)N1CCC[C@H]1C(=O)N[C@@H](CC(N)=O)C(=O)N[C@H](C(=O)O)[C@@H](C)O)[C@@H](C)O)[C@@H](C)O [Peptide 316],45 ± 19
9,CC[C@H](C)[C@H](NC(=O)[C@H](CC(N)=O)NC(=O)[C@H](CCSC)NC(=O)[C@H](CS)NC(=O)[C@H](CCC(N)=O)NC(=O)[C@@H](NC(=O)[C@@H](NC(=O)[C@H](CCCCN)NC(=O)CN)[C@@H](C)O)[C@@H](C)O)C(=O)N[C@@H](CCSC)C(=O)N[C@@H](CCC(=O)O)C(=O)N[C@@H](CO)C(=O)N[C@H](C(=O)N1CCC[C@H]1C(=O)N[C@@H](C)C(=O)N[C@@H](CC(N)=O)C(=O)N[C@H](C(=O)N[C@H](C(=O)N[C@@H](CCCCN)C(=O)N[C@@H](Cc1ccc(O)cc1)C(=O)N[C@@H](CC(C)C)C(=O)O)[C@@H](C)CC)[C@@H](C)O)[C@@H](C)CC [Peptide 327],11 ± 3
10,CC[C@H](C)[C@H](NC(=O)[C@H](CCC(=O)O)NC(=O)[C@H](CC(=O)O)NC(=O)[C@@H](NC(=O)[C@H](CC(=O)O)NC(=O)[C@H](CC(C)C)NC(=O)[C@@H](NC(=O)[C@H](CCCCN)NC(=O)CNC(=O)[C@H](Cc1c[nH]cn1)NC(=O)[C@@H](NC(=O)[C@@H](NC(=O)[C@H](Cc1ccc(O)cc1)NC(=O)[C@H](CCSC)NC(=O)[C@H](CC(=O)O)NC(=O)[C@H](Cc1ccc(O)cc1)NC(=O)[C@@H]1CCCN1C(=O)[C@H](CC(C)C)NC(=O)[C@H](CCCNC(=N)N)NC(=O)[C@@H](N)CCCCN)[C@@H](C)CC)[C@@H](C)CC)C(C)C)[C@@H](C)CC)C(=O)N[C@@H](CC(C)C)C(=O)O [Peptide 339],210 ± 45
11,CC[C@H](C)[C@H](NC(=O)[C@H](Cc1ccccc1)NC(=O)[C@H](CCC(=O)O)NC(=O)[C@H](CC(N)=O)NC(=O)[C@@H](N)[C@@H](C)O)C(=O)N[C@@H](CO)C(=O)N[C@@H](Cc1ccccc1)C(=O)N[C@@H](CC(C)C)C(=O)N[C@@H](CC(C)C)C(=O)N[C@@H](CC(C)C)C(=O)N[C@H](C(=O)N[C@@H](CO)C(=O)N[C@H](C(=O)N1CCC[C@H]1C(=O)N[C@H](C(=O)N[C@@H](Cc1ccc(O)cc1)C(=O)N[C@@H](CC(N)=O)C(=O)N[C@H](C(=O)N[C@@H](CC(C)C)C(=O)N[C@@H](Cc1ccccc1)C(=O)N[C@@H](Cc1c[nH]c2ccccc12)C(=O)O)[C@@H](C)CC)[C@@H](C)CC)[C@@H](C)CC)[C@@H](C)O [Peptide 313],510 ± 110
12,CC[C@H](C)[C@H](N)C(=O)N[C@@H](Cc1ccccc1)C(=O)N[C@@H](CCCCN)C(=O)N[C@@H](CC(N)=O)C(=O)N[C@@H](CC(N)=O)C(=O)N[C@@H](CC(=O)O)C(=O)N[C@H](C(=O)N[C@@H](CCCNC(=N)N)C(=O)N[C@H](C(=O)N[C@@H](CC(C)C)C(=O)N[C@@H](CC(C)C)C(=O)NCC(=O)N[C@@H](CC(C)C)C(=O)N[C@H](C(=O)N[C@@H](CC(C)C)C(=O)N[C@@H](Cc1ccccc1)C(=O)N[C@H](C(=O)N[C@@H](CC(C)C)C(=O)N[C@@H](C)C(=O)N[C@@H](CC(C)C)C(=O)N[C@@H](Cc1ccc(O)cc1)C(=O)O)C(C)C)[C@@H](C)CC)[C@@H](C)O)C(C)C [Peptide 322],1270
13,CC[C@H](C)[C@H](N)C(=O)N[C@H](C(=O)N[C@H](C(=O)N[C@@H](Cc1c[nH]c2ccccc12)C(=O)N1CCC[C@H]1C(=O)N[C@@H](CCCCN)C(=O)N[C@@H](Cc1ccccc1)C(=O)N[C@@H](CCCNC(=N)N)C(=O)N[C@H](C(=O)N[C@H](C(=O)N[C@@H](CCCCN)C(=O)N1CCC[C@H]1C(=O)N[C@@H](CC(N)=O)C(=O)N[C@@H](CO)C(=O)N[C@@H](Cc1ccccc1)C(=O)N[C@H](C(=O)N[C@@H](Cc1ccccc1)C(=O)N[C@@H](CO)C(=O)N[C@@H](Cc1ccccc1)C(=O)N[C@@H](CO)C(=O)N[C@@H](CO)C(=O)O)[C@@H](C)O)C(C)C)C(C)C)[C@@H](C)O)[C@@H](C)O [Peptide 344],33 ± 5
14,CC[C@H](C)[C@H](NC(=O)CNC(=O)[C@@H](NC(=O)[C@@H]1CCCN1C(=O)[C@@H](NC(=O)CNC(=O)CNC(=O)CNC(=O)[C@@H](N)CC(C)C)[C@@H](C)O)[C@@H](C)CC)C(=O)N[C@H](C(=O)N[C@@H](CO)C(=O)N[C@@H](C)C(=O)N[C@@H](CCC(N)=O)C(=O)N[C@H](C(=O)N[C@@H](CC(C)C)C(=O)N[C@@H](CO)C(=O)N[C@@H](CCC(=O)O)C(=O)N[C@@H](CCCCN)C(=O)N[C@@H](Cc1ccccc1)C(=O)N[C@H](C(=O)N[C@@H](CCC(N)=O)C(=O)O)[C@@H](C)O)C(C)C)[C@@H](C)CC [Peptide 326],29 ± 8
15,CC[C@H](C)[C@H](N)C(=O)N[C@@H](CCCCN)C(=O)N[C@@H](CCCNC(=N)N)C(=O)NCC(=O)N[C@@H](CC(C)C)C(=O)N[C@@H](Cc1ccccc1)C(=O)N[C@@H](Cc1ccccc1)C(=O)N[C@@H](CC(C)C)C(=O)N[C@@H](CCCNC(=N)N)C(=O)N[C@@H](CC(C)C)C(=O)N[C@@H](CO)C(=O)N[C@@H](C)C(=O)N[C@@H](CC(N)=O)C(=O)N[C@@H](CC(C)C)C(=O)N[C@@H](Cc1ccccc1)C(=O)N[C@@H](CCC(=O)O)C(=O)N[C@@H](CO)C(=O)N[C@@H](CCC(N)=O)C(=O)N[C@H](C(=O)N[C@@H](CO)C(=O)N[C@@H](CO)C(=O)O)C(C)C [Peptide 333],68 ± 14

# Same assay, conditions: HLA-DR1 competition assay, unpublished data; read-out: IC50
row,Molecule,IC50 [nM]
1,CSCC[C@H](NC(=O)[C@H](CC(=O)O)NC(=O)[C@@H](NC(=O)[C@H](CCCNC(=N)N)NC(=O)[C@H](CCSC)NC(=O)[C@H](Cc1ccccc1)NC(=O)[C@@H]1CCCN1C(=O)[C@@H](NC(=O)[C@H](CCC(N)=O)NC(=O)[C@H](CCCCN)NC(=O)CNC(=O)[C@@H]1CCCN1C(=O)[C@@H](N)CC(N)=O)C(C)C)[C@@H](C)O)C(=O)N[C@@H](CC(C)C)C(=O)O [Peptide B7055],11
